Assay results: patent US8252798B2, “Purine compounds” (Eli Lilly and Company, priority 2008, dated 2012)
Where a name gives a salt, the structure may show the parent alone. Values belong to the compound of their own block, whether it stands above or below them.

What was measured:
hCB2-Sf9 membranes = molecular target: T1, hCB2-Sf9 membranes (Homo sapiens, UniProt P34972); experiment: CB2 in vitro functional assay, SPA based GTP-γ-35S binding, agonist mode (antibody capture); format: biochemical; conditions: normalized to full agonist methanandamide, read-out: relative EC50 value for CB2
T1 construct: expressed in transfected cells; host or cells: Sf9
T1 sequence (P34972 whole entry): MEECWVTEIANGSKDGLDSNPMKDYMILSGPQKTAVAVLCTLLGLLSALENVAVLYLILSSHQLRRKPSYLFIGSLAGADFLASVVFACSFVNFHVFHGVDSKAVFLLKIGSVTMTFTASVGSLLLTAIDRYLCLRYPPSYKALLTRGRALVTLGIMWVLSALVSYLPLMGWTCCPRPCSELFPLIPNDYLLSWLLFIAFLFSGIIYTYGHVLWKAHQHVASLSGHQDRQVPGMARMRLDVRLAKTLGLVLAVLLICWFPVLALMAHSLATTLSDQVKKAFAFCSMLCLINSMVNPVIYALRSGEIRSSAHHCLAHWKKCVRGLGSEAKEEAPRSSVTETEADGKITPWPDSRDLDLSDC
Experimental: (§1) Exemplified compounds are tested in agonist mode using a SPA based GTP-γ-^35S binding assay. All assay components are prepared in assay buffer made up of 20 mM HEPES, 100 mM NaCl, 5 mM MgCl2, (pH 7.4 at room temperature). Semi-log compound dilutions are done in assay buffer containing BSA (final 0.125%). GTP-γ^35-S binding is measured in a 96 well format using a whole membrane capture technique for the CB1 assay and modifications of an antibody capture technique previously described (DeLapp et al. J Pharmacol Exp Ther 289:946-955, 1999) for the CB2 assay. All incubations are done at room temperature.
hCB2-Sf9 membranes and GDP (1 uM final) are added to assay buffer and homogenized. Diluted compounds and membranes are added to the assay plate and pre-incubated for 15 minutes. This is followed by addition of GTP-γ-^35S (500 nM final) and another 35 minute incubation. Next a mixture containing Nonidet® P40 detergent (0.2% final), anti-Gi antibody (final dilution of 1:362), and 1.25 mg anti-rabbit antibody scintillation proximity assay beads is added. The plates are then sealed, vortexed, and incubated for an additional 2 hours before centrifuging and counting as for CB1.
To analyze data, first subtract background from all wells. Determine percent agonist efficacy by normalizing agonist/inverse agonist dose response data to a full agonist (methanandamide) response. […]

hCB1-CHO membranes = molecular target: T2, hCB1-CHO membranes (Homo sapiens, UniProt P21554); experiment: CB1 in vitro functional assay, SPA based GTP-γ-35S binding, agonist mode (whole membrane capture); format: biochemical; conditions: normalized to full agonist methanandamide, read-out: relative EC50 value for CB1
T2 construct: expressed in transfected cells; host or cells: CHO
T2 sequence (P21554 whole entry): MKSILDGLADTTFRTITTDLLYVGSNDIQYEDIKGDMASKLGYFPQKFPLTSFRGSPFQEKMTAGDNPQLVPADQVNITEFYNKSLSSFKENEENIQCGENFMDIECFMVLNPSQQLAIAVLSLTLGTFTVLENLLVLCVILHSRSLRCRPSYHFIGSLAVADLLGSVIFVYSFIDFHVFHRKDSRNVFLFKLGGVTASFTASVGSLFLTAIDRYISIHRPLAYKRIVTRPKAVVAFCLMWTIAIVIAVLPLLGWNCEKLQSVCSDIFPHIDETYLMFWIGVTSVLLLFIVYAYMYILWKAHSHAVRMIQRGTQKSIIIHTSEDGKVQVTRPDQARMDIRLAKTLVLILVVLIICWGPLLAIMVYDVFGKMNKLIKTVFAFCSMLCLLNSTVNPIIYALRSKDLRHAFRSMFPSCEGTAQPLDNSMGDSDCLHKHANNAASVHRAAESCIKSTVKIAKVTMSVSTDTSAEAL
Experimental: as §1
hCB1-CHO membranes, GDP (1 uM final), and saponin (10 ug/mL final) are added to assay buffer and homogenized. Diluted compounds, GTP-γ-^35S (500 nM final) and membranes are added to the assay plate and incubated for 30 minutes. Then 1 mg/well Wheatgerm Agglutinin SPA bead is added, and the plates are sealed, vortexed, and incubated for an additional hour. Plates are then centrifuged at 700×g for 10 minutes and counted for 1 minute per well using a scintillation counter.
To analyze data, first subtract background from all wells. Determine percent agonist efficacy by normalizing agonist/inverse agonist dose response data to a full agonist (methanandamide) response. Analyze the data using a 4-parameter logistic reduced fit with Activity Base and XLFit3.

human CB2 receptor = molecular target: T3, human CB2 receptor (Homo sapiens, UniProt P34972); experiment: Displacement of 3H-CP55940 from human CB2 receptors; format: binding; conditions: displacement of 3H-CP55940, human CB2 membrane homogenates
T3 construct: expressed in transfected cells
T3 sequence (P34972 whole entry): as the sequence (P34972 whole entry) above
Experimental: (§2) The methods of Felder et al. (Mol. Pharmaocol. 48:443-450, 1995) were utilized with minor modifications. Specifically, membrane homogenates from cells stably or transiently expressing the human or rat CB2 receptor were washed by centrifugation and diluted into a 50 mM Tris HCl (pH 7.4), 5 mM MgCl2, 2.5 mM EDTA, and 0.1% BSA buffer. Specific binding of 3H-CP55940 was defined with 1 μM CP55940. The ability of compounds to displace specific 3H-CP55940 binding was tested over a range of concentrations in the Tris, MgCl2, EDTA, BSA buffer in the presence of 1% dimethyl sulfoxide by incubating at room temperature for 90 minutes in a volume of 300 μl. Unifilter 96-well microplates pretreated with 0.5% polyvinylpyrrolidone, 0.1% polysorbate 20 in water were washed three times with cold Tris buffer. The reaction mixture was then transferred to the filter plate immediately before terminating the incubation by rapid filtration and three 200 μl washes with cold Tris buffer. After the filter plates dried, microscint 20 was added to each well, the plate sealed and counted for determination of disintegrations per minute. The displacement curves were graphed and the resulting Ki values determined utilizing Graphpad Prism.

rat CB2 receptor = molecular target: T4, rat CB2 receptor (Rattus norvegicus, UniProt Q9QZN9); experiment: Displacement of 3H-CP55940 from rat CB2 receptors; format: binding; conditions: displacement of 3H-CP55940, rat CB2 membrane homogenates
T4 construct: expressed in transfected cells
T4 sequence (Q9QZN9 1-360): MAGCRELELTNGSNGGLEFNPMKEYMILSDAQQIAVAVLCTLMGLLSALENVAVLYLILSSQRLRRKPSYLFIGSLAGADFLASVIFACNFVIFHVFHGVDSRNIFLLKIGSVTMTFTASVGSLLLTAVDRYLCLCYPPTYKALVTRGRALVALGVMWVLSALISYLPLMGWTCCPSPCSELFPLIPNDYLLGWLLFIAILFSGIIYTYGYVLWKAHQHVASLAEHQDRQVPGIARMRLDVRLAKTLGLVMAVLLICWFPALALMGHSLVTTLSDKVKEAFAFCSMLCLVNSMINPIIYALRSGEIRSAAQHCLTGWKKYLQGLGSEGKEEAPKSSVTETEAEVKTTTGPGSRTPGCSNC
Experimental: as §2

male Lewis rats = experiment: Monoiodoacetate (MIA) model, incapacitance testing of knee pain; format: in vivo; conditions: rat MIA model
Experimental: For all studies male Lewis rats of approximately 8 weeks of age at the time of MIA injection are used to measure pain in the MIA model. The rats are housed in groups of 2 or 3 per cage and maintained in a constant temperature and on a 12 hour light/12 hour dark cycle. Animals have free access to food and water at all times except during data collection.
In the standard MIA model the right knees of each rat are injected with 0.3 mg MIA in 50 ul of saline and the left knees with 50 ul of saline. Pain is measured at varying times after MIA injection (not normally before 10 day post MIA injection) using incapacitance testing. This measures the difference in hind paw weight bearing between the MIA and saline injected knees, and each measurement is the average of 3 separate measurements each measured over 1 second.
For studies with CB2 agonists rats are randomized into dose groups (n=5 or 6) and then dosed once with the compound under investigation. Dosing is staggered by 15 minutes for each rat and at a predetermined time post-dose (usually 2 hours), pain measured using incapacitance testing. Studies are routinely run with 4 groups, vehicle (1% carboxy methyl cellulose in water plus 0.25% polysorbate 80) and 3 compound groups which can be either single compounds at a single dose or the same compound at 3 doses. […]

Compound: Cc1nc(N2CCN3C(=O)CCC3C2)c2nc(-c3ccccc3Cl)n(CC3CCOCC3)c2n1 (single isomer, unassigned) [Example 61, 2-[8-(2-Chloro-phenyl)-2-methyl-9-(tetrahydro-pyran-4-ylmethyl)-9H-purin-6-yl]-hexahydro-pyrrolo[1,2-a]pyrazin-6-one hydrochloride salt]
EC50 (hCB2-Sf9 membranes): 0.018 µM
EC50 (hCB1-CHO membranes): 1.95 µM

Ki (human CB2 receptor): 0.0339 µM
Ki (rat CB2 receptor): 0.0313 µM
Compound: Cc1nc(N2CCN(C)CC2)c2nc(-c3cccnc3C3CC3)n([C@@H]3CCOC3)c2n1 [Example 76, 8-(2-Cyclopropyl-pyridin-3-yl)-2-methyl-6-(4-methyl-piperazin-1-yl)-9-(R)-tetrahydro-furan-3-yl-9H-purine hydrochloride salt]

Compound: Cc1nc(N2CCN(C)CC2)c2nc(-c3ccccc3Cl)n([C@@H]3CCOC3)c2n1.Cl [Example 88, 8-(2-Chloro-phenyl)-2-methyl-6-(4-methyl-piperazin-1-yl)-9-(R)-tetrahydro-furan-3-yl-9H-purine hydrochloride salt]
pain versus vehicle (difference in hind paw weight bearing) (male Lewis rats; oral dose 0.3 mg/kg): significantly reduce pain versus vehicle
pain versus vehicle (difference in hind paw weight bearing) (male Lewis rats; oral dose 1 mg/kg): significantly reduce pain versus vehicle
